Assay results taken from patent publication US20050171151A1, “Methods of treating hyperlipidemia” (Allergan, Inc., priority 2001, published 2005).
Several values for one entry are separate records, joined by “and”; a condition that tells them apart may be missing. Identical values can stand only once. Entries after “also recorded” stand apart in the source; their conditions may differ. Like-named read-outs stand apart in the source and are kept apart here. One block for each molecule: values may come before it.

Assays:
[1] = test system: hepatic triglyceride output; experiment: Hepatic triglyceride (HTG) output: increase of STG after WR-1339 in fasted male SJL mice; type: in vivo; conditions: for Serum triglycerides, Day 4 post-WR-1339 1 hr (3 p.m.), group mean / Serum triglycerides, Day 4 post-WR-1339 2 hr (4 p.m.), group mean / Serum triglycerides, Day 4 post-WR-1339 1 hr (3 p.m.) / Serum triglycerides, Day 4 post-WR-1339 2 hr (4 p.m.): fasted; for Effect on HTG output after WR-1339 injection: 20 mg/kg orally for 4 days
Method: (§1) On day 4, animals were fasted after dosing, starting at 8 a.m. Following 6 hours of fasting, blood samples were collected prior to intravenous injection of WR-1339 at 100 mg/5 ml/kg. Additional serum samples were collected at 1 and 2 hours after WR-1339 injection. WR-1339 is a detergent which inactivates lipoprotein lipase and thus prevents the removal of triglycerides from circulation. By measuring the increase of STG after WR-1339 administration in fasted animals, one can estimate the hepatic triglyceride (HTG) output during fasting.
(§2) Due to the lack of effect of AGN 197116 at 20 mg/kg, the dose was increased to 100 mg/kg in the same set of mice. STG was determined on day 3 prior to dosing (Day 3, 8 a.m.). […] To ensure that AGN 197116 would be bioavailable, AGN 197116 was dissolved in DMSO and given by intraperitoneal injections, once at 4 p.m. on day 3 and once at 8 a.m. on day 4, at a dosage of 100 mg/kg/injection. Administration of WR-1339 and blood collections on day 4 were similarly conducted as described above.

serum triglycerides [2] = experiment: Serum triglycerides (STG) in male SJL mice; type: in vivo; conditions: for Serum triglycerides, Day 4 0 hr (2 pm), group mean / Serum triglycerides, Day 3 8 a.m., group mean / Serum triglycerides, Day 4 0 hr (2 pm): 20 mg/kg oral gavage daily; for Serum triglycerides, Day 3 8 a.m., group mean / Serum triglycerides, Day 3 8 a.m.: non-fasting; for Serum triglycerides, Day 3 8 a.m. / Serum triglycerides, Day 4 0 hr (2 pm): individual male SJL mice, 20 mg/kg; for Serum triglycerides, Day 3 8 a.m.: 20 mg/kg oral gavage daily in corn oil; for Effect on non-fasting STG: Day 3, 8 a.m.
Method: Male SJL mice were dosed orally with vehicle, AGN 197116 (RARα antagonist) or AGN 194310 (RAR pan-antagonist) for 4 consecutive days. The structure of AGN 194310 is described herein below. The structure of AGN 197116 is: [drawing 16]
The test compounds were dissolved in corn oil and given at a dosage/volume of 20 mg/5 ml/kg. […]
as §1, §2

Stability to light = type: physicochemical
[3] = Clinical observation, body weight and food consumption of treated monkeys; type: in vivo, cynomolgus monkeys
Excerpt: AGN 194310 is an RAR antagonist or inverse agonist. Its structure is described herein below.

serum triglycerides [4] = experiment: Serum triglycerides in cynomolgus monkeys treated orally (Study PT-99-10); type: in vivo
Method: (§3) Five male cynomologus monkeys were employed in Study PT-99-10. […] Its structure is described herein below. The remaining two were similarly treated with a vehicle to serve as control. Serum samples were collected on days 1, 8, 15, 22 and 25 for triglyceride determination. Serum samples from days 8, 15, 22 and 25 were also assayed for the concentration of AGN 194310.

[5] = cynomolgus monkey, in vivo
Method: as §3, with “PT-99-10. Three of the five monkeys were treated with AGN 194310 at a daily dosage of 1.25 mg/kg (orally) for a period of 25 days.” for “PT-99-10.”

[6] = test system: serum lipids (triglyceride, cholesterol, LDL, HDL); conditions: for Triglyceride level after treatment: with diet and exercise
[7] = male SJL mice, 20 mg/kg oral gavage daily, 1 hr after 100 mg/kg tyloxapol IV
[8] = male SJL mice, 20 mg/kg oral gavage daily, 2 hr after 100 mg/kg tyloxapol IV
[9] = individual male SJL mice, 20 mg/kg oral gavage daily, 1 hr after 100 mg/kg tyloxapol IV
[10] = individual male SJL mice, 20 mg/kg oral gavage daily, 2 hr after 100 mg/kg tyloxapol IV
[11] = group mean, male SJL mice, after 6 hours fasting, before WR-1339
[12] = after 6 hours fasting, before WR-1339

Structure (SMILES): Cc1ccc(C2=CCC(C)(C)c3cc(O)c(C(=O)Nc4ccc(C(=O)O)c(F)c4)cc32)cc1 [AGN 197116]
Effect on HTG output ([1]; SJL mice, intraperitoneal injection 100 mg/kg/injection): reduced
Serum triglycerides, Day 4 post-WR-1339 1 hr (3 p.m.), group mean ([1]; SJL mice, 100 mg/kg oral then I.P., 1 hr after WR-1339): 222
Serum triglycerides, Day 4 post-WR-1339 2 hr (4 p.m.), group mean ([1]; SJL mice, 100 mg/kg oral then I.P., 2 hr after WR-1339): 345
Serum triglycerides, Day 4 post-WR-1339 1 hr (3 p.m.), group mean [1, 7]: 334.2
Serum triglycerides, Day 4 post-WR-1339 2 hr (4 p.m.), group mean [1, 8]: 646.8
Serum triglycerides, Day 4 post-WR-1339 1 hr (3 p.m.) ([1]; individual SJL mice, Day 1-3 100 mg/kg oral, Day 3-4 100 mg/kg I.P., 1 hr after WR-1339, 100 mg/kg): 220 and 195 and 248 and 345 and 126 and 197
Serum triglycerides, Day 4 post-WR-1339 2 hr (4 p.m.) ([1]; individual SJL mice, Day 1-3 100 mg/kg oral, Day 3-4 100 mg/kg I.P., 2 hr after WR-1339, 100 mg/kg): 285 and 272 and 396 and 531 and 200 and 387
Serum triglycerides, Day 4 post-WR-1339 1 hr (3 p.m.) [1, 9]: 360.1 and 380.1 and 464.1 and 241.9 and 331.7 and 329.8 and 262.6 and 311 and 326.5
Serum triglycerides, Day 4 post-WR-1339 2 hr (4 p.m.) [1, 10]: 726.9 and 723.7 and 770.2 and 590 and 575.2 and 700.4 and 462.8 and 659.1 and 612.6
Effect on HTG output after WR-1339 injection ([1]; male SJL mice): not observed
Effect on STG (serum triglycerides [2]; SJL mice, 100 mg/kg orally, Day 3, 8 a.m. prior to dosing): no lowering of STG was observed
Effect on STG (serum triglycerides [2]; SJL mice, 16 hours after a single intraperitoneal 100 mg/kg dose in DMSO (Day 4, 8 a.m.)): clear lowering of STG
Effect on fasting STG (serum triglycerides [2]; SJL mice, intraperitoneal 100 mg/kg/injection, after fasting (Day 4, 2 p.m.)): this effect disappeared after fasting
Serum triglycerides, Day 4 post-WR-1339 0 hr (2 pm), group mean (serum triglycerides [2]; group mean, SJL mice, 100 mg/kg oral then I.P., after 6 hours fasting, before WR-1339): 50
Serum triglycerides, Day 4 0 hr (8 am), group mean (serum triglycerides [2]; group mean, SJL mice, 16 hours after a single 100 mg/kg I.P. dose): 79
Serum triglycerides, Day 3 0 Hour, group mean (serum triglycerides [2]; group mean, SJL mice, Day 1-3 100 mg/kg oral, Day 3 prior to dosing): 118
Serum triglycerides, Day 4 0 hr (2 pm), group mean (serum triglycerides [2]; [11]): 72.4
Serum triglycerides, Day 3 8 a.m., group mean (serum triglycerides [2]; group mean, male SJL mice): 123.0
Serum triglycerides, Day 4 0 hr (8 am) (serum triglycerides [2]; individual SJL mice, 16 hours after a single 100 mg/kg I.P. dose (after Day 1-3 100 mg/kg oral), 100 mg/kg): 58 and 79 and 51 and 114 and 50 and 125
Serum triglycerides, Day 4 post-WR-1339 0 hr (2 pm) (serum triglycerides [2]; individual SJL mice, Day 1-3 100 mg/kg oral, Day 3-4 100 mg/kg I.P., after 6 hours fasting, before WR-1339, 100 mg/kg): 42 mg/dL (2×) and 36 mg/dL and 73 mg/dL and 59 mg/dL and 50 mg/dL
Serum triglycerides, Day 3 0 Hour (serum triglycerides [2]; individual SJL mice, Day 1-3 100 mg/kg oral, Day 3 prior to dosing, 100 mg/kg): 81 and 104 and 103 and 139 and 107 and 171
Serum triglycerides, Day 3 8 a.m. (serum triglycerides [2]): 128.7 and 124 and 150.3 and 110.5 and 118.6 and 124.7 and 112.5 and 106.4 and 131.4
Serum triglycerides, Day 4 0 hr (2 pm) (serum triglycerides [2]; [12]): 63.1 and 91.7 and 43 and 72.1 and 90.8 and 76 and 68.2 and 73.4 (2×)
Effect on non-fasting STG (serum triglycerides [2]; male SJL mice, 20 mg/kg orally): not observed

Stability to normal light (Stability to light): relatively stable to normal light
Oral absorption [5]: well absorbed
Structure (SMILES): CCc1ccc(C2=CC(C)(C)Sc3ccc(C#Cc4ccc(C(=O)O)cc4)cc32)cc1 [AGN 194310, 4-[[4-(4-ethylphenyl)-2,2-dimethyl-(2H)-thiochromen-6-yl]-ethynyl]-benzoic acid]
Body weight and rate of food consumption ([3]; 1.25 mg/kg orally daily, throughout the 25 day study): no change in body weight or rate of food consumption
Abnormal clinical signs ([3]; daily dose 1.25 mg/kg orally, 25 days): without any noticeable abnormal clinical signs
Serum triglycerides, Day 1 (serum triglycerides [4]; individual male cynomolgus monkeys, by gastric intubation daily, Day 1 (baseline)): 48.8 mg/dL and 52.5 mg/dL and 58.5 mg/dL
Serum triglycerides, Day 8 (serum triglycerides [4]; individual male cynomolgus monkeys, by gastric intubation daily, Day 8): 24.3 mg/dL and 21.6 mg/dL and 19.2 mg/dL
Serum triglycerides, Day 15 (serum triglycerides [4]; individual male cynomolgus monkeys, by gastric intubation daily, Day 15): 18.2 mg/dL and 30.7 mg/dL and 29.6 mg/dL
Serum triglycerides, Day 22 (serum triglycerides [4]; individual male cynomolgus monkeys, by gastric intubation daily, Day 22): 30.4 mg/dL and 20.6 mg/dL and 36.5 mg/dL
Serum triglycerides, Day 25 (serum triglycerides [4]; individual male cynomolgus monkeys, by gastric intubation daily, Day 25): 20.3 mg/dL and 23.4 mg/dL and 28.3 mg/dL
Serum triglycerides, Day 1, group mean (serum triglycerides [4]; mean of 3 monkeys, by gastric intubation, Day 1 (baseline)): 53.3 mg/dL
Serum triglycerides, Day 8, group mean (serum triglycerides [4]; mean of 3 monkeys, by gastric intubation, Day 8): 21.7 mg/dL
Serum triglycerides, Day 15, group mean (serum triglycerides [4]; mean of 3 monkeys, by gastric intubation, Day 15): 26.2 mg/dL
Serum triglycerides, Day 22, group mean (serum triglycerides [4]; mean of 3 monkeys, by gastric intubation, Day 22): 29.2 mg/dL
Serum triglycerides, Day 25, group mean (serum triglycerides [4]; mean of 3 monkeys, by gastric intubation, Day 25): 24.0 mg/dL
Effect on serum triglycerides (serum triglycerides [4]; monkeys, daily dose 1.25 mg/kg orally, 1.25 mg/kg): highly significant decrease of serum triglycerides; also recorded: lowers serum triglycerides
Average decrease of serum triglycerides compared to day 1 (baseline) (serum triglycerides [4]; per treated monkey, 1.25 mg/kg orally daily for 25 days, control monkeys increased 48% and 89%, 1.25 mg/kg): 52% and 54% and 51%
Serum triglycerides, Day 4 post-WR-1339 1 hr (3 p.m.), group mean [1, 7]: 266.3
Serum triglycerides, Day 4 post-WR-1339 2 hr (4 p.m.), group mean [1, 8]: 485.6
Serum triglycerides, Day 4 post-WR-1339 1 hr (3 p.m.) [1, 9]: 216.8 and 307.2 and 294.9 and 311.7 and 238.7 and 303.9 and 260 and 252.3 and 210.9
Serum triglycerides, Day 4 post-WR-1339 2 hr (4 p.m.) [1, 10]: 328.5 and 548 and 562.9 and 577.1 and 493.8 and 508 and 550 and 542.9 and 259.1
Effect on HTG output after WR-1339 injection ([1]; male SJL mice): reduction of HTG output
Triglyceride level after treatment ([6]; Example 1, person, tablet 20 mg daily, 3 months, initial 440 mg/dL): 280 mg/dL
Triglyceride level after treatment ([6]; Example 2, person, tablet 50 mg twice daily, initial 950 mg/dL): 450 mg/dL
Side effects ([6]; human, in vivo): no side effects
Tolerability ([6]; human, in vivo): tolerates the medication well
Serum triglycerides, Day 4 0 hr (2 pm), group mean (serum triglycerides [2]; [11]): 71.5
Serum triglycerides, Day 3 8 a.m., group mean (serum triglycerides [2]; group mean, male SJL mice): 92.7
Serum triglycerides, Day 3 8 a.m. (serum triglycerides [2]): 71.2 and 105.7 and 67.9 and 113.2 and 134.8 and 76.6 and 63.1 and 84.1 and 95.6 and 115.2
Serum triglycerides, Day 4 0 hr (2 pm) (serum triglycerides [2]; [12]): 76.6 and 76 (2×) and 57.3 and 74.7 and 80.5 and 71.5 and 73.4 and 61.1 and 67.6
Effect on non-fasting STG (serum triglycerides [2]; male SJL mice, 20 mg/kg orally): appeared to lower
Effect on fasting STG (serum triglycerides [2]; male SJL mice, 20 mg/kg orally, Day 4, 2 p.m.): but not fasting STG
